Experimental findings from ChEMBL document CHEMBL1201862, “PubChem BioAssay data set” (2004) are described below.

The source made the active and inactive calls.

The target of one test is T1, Cytochrome P450 1A2 (Homo sapiens, UniProt P05177).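 Further: PubChem cytochrome P450 panel assay, CYP1A2 panel member.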
T1 sequence (P05177 whole entry): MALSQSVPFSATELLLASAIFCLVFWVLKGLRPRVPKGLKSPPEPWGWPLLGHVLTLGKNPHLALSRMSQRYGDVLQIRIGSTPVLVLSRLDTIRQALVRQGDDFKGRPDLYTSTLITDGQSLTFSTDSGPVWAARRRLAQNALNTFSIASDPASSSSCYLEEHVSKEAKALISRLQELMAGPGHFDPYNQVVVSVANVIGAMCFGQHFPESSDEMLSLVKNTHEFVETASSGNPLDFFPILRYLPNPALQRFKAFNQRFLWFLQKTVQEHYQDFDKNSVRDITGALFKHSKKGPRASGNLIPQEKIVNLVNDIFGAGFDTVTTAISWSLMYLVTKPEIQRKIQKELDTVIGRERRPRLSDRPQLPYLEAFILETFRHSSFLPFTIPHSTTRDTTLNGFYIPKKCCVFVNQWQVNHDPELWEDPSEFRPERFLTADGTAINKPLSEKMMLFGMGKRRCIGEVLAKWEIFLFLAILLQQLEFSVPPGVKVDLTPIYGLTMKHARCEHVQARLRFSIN

Test [1] can be described thus: A Cell Based Secondary Assay To Explore Cytotoxicity of Compounds that Sensitize Mycobacterium Tuberculosis to Beta-Lactam Antibiotics. It is filed as functional.
The next test has as its target T2, Streptokinase A (Streptococcus pyogenes serotype M1, UniProt P10520).
T2 sequence (P10520 whole entry): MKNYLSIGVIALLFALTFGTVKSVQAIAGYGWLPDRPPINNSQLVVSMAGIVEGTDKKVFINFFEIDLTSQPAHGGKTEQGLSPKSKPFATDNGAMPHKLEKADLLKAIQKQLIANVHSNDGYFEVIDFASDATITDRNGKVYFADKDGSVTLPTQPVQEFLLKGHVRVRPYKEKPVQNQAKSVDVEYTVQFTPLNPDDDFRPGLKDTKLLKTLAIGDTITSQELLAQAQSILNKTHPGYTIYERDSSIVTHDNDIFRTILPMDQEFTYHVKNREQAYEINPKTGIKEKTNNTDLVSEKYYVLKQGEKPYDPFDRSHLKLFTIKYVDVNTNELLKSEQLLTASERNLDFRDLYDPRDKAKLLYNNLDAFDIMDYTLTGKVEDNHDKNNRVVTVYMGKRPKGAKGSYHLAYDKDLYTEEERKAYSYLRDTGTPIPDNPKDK
Kind of test: S. pyogenes streptokinase expression inhibitors, potency, dose response, plasminogen activation absorbance, OD405 (AID 1914).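 Further: secreted streptokinase activity via plasminogen activation per viability signal from cell pellet.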 It is filed as functional, Streptococcus pyogenes M1 GAS.

The test system of test [2] is Streptococcus sp. 'group A'. Kind of test: growth inhibition of control SK(-) GAS strain, dose response, counter-screen for streptokinase expression inhibitor project, luminescence, kanamycin, BacTiterGlo, confirmation (AID 1900). It is filed as functional, organism-based.
In a further test the test system is Streptococcus. Kind of test: Group A Streptococcus viability loss, dose response, counter-screen for streptokinase expression inhibitor project, luminescence, BacTiterGlo (AID 1915).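 Further: potency for reduction of bacterial viability or growth.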 The format is functional, organism-based.
Test [3] addresses DNA dC->dU-editing enzyme APOBEC-3G (Homo sapiens, UniProt Q9HC16). Kind of test: Dose Response confirmation of small molecule APOBEC3G DNA Deaminase Inhibitors via a fluorescence-based single-stranded DNA deaminase assay. [Related pubchem assays (depositor defined):AID493012, AID493028]. The format is functional.
A short description of test [4]: cytotoxicity toward NIH3T3 fibroblasts, dose response, counter-screen, cell-based, ATP luminescence, mouse fibroblasts (AID 2010).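 Further: cells exposed to compound for about 90 hours before reading.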 The format is functional.
Test [5] in a line: growth suppression of PTEN-null colon cells, dose response, cell-based, HCT116 PTEN knockout (AID 1047).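 Further: HCT116 colon tumor cells with PTEN knocked out; cells exposed to compound for 60 hours before readout; potency for loss of cell viability measured by luminescence.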 The format is functional.
Test [6] can be described thus: inhibitors of intracellular T. cruzi replication, confirmation, NIH3T3 host cells, beta-gal luminescence (AID 2044).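 Further: intracellular parasites grown in NIH/3T3 mouse fibroblasts as host cells; luminescent beta-galactosidase reporter signal from transgenic T. cruzi replicating inside host cells; inhibitors lower the luminescence signal.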 It is filed as functional, cell-based.
Test [7] can be described thus: growth suppression of beta-catenin-knockout colon cells, dose response, cell-based, HCT116, human colon tumor (AID 1045).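 Further: HCT116 colon tumor cells with beta catenin knocked out; cells exposed to compound for 60 hours.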 It is filed as functional.
Test [8] addresses T3, Polyadenylate-binding protein 1 (Homo sapiens, UniProt P11940). Kind of test: PABP1 MLLE–PAM2 interaction inhibitors, dose response, miRNA deadenylation inhibitor project, biochemical, fluorescence polarization, Cy5-PAM2 peptide, secondary (AID 602260). As to conditions: read-out: IC50_Mean. It is filed as functional.
Test [9] has as its target Induced myeloid leukemia cell differentiation protein Mcl-1 (Homo sapiens, UniProt Q07820). The format is functional.
In test [10] the target is T4, Zinc finger protein mex-5 (Caenorhabditis elegans, UniProt Q9XUB2).
T4 sequence (Q9XUB2 whole entry): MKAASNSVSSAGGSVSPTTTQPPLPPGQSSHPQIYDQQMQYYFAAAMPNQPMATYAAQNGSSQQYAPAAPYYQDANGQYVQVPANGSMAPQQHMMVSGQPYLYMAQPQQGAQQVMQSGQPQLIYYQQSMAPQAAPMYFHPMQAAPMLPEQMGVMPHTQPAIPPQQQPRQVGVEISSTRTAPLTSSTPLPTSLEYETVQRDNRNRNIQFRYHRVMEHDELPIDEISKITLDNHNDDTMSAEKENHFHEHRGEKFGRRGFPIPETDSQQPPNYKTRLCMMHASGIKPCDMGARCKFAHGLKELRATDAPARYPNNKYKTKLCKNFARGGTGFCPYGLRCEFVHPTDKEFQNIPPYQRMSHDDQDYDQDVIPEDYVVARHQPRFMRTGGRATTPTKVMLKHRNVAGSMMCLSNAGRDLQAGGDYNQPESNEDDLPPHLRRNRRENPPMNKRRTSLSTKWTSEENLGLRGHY
Kind of test: MEX-5/TCR-2 RNA interaction inhibitors, dose response, biochemical, C. elegans, fluorescence polarization (AID 1960).

A further test deals with Genome polyprotein (dengue virus type 2, UniProt P29990). Kind of test: Dengue-2 NS5 methyltransferase inhibitors, primary screen, biochemical, confirmation dose response (AID 588689). It is filed as functional.
Chain of Genome polyprotein (P29990 2492-3391 limits assumed): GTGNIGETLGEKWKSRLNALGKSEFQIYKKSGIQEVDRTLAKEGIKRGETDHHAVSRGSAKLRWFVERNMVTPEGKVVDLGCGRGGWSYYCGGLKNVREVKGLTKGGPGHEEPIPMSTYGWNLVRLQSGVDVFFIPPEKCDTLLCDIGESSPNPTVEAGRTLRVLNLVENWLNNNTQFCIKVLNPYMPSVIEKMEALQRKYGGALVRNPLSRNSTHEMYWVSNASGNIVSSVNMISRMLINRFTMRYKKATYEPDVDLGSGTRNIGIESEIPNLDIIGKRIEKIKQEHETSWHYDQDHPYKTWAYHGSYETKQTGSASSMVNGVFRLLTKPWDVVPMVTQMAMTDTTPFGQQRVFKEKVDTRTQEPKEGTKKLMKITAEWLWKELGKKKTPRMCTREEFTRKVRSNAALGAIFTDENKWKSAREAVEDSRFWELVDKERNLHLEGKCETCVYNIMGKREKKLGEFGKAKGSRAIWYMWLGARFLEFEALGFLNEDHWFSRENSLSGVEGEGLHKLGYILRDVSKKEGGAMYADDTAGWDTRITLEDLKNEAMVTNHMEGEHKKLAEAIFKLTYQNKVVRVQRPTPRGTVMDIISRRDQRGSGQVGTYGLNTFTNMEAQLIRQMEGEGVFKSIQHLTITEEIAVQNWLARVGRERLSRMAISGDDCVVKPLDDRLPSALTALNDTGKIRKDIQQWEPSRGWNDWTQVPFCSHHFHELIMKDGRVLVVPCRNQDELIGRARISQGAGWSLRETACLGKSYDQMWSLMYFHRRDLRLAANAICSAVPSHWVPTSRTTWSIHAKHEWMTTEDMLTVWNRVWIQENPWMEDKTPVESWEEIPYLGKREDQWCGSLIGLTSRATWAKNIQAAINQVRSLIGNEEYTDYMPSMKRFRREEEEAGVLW
The next test addresses Estrogen receptor beta (Homo sapiens, UniProt Q92731). As to the kind of experiment: ERβ–SRC-3 coactivator interaction inhibitors, confirmation, orthogonal assay, biochemical, ELISA, streptavidin-HRP readout (AID 1060).
Test [11] has as its target T3, Polyadenylate-binding protein 1. As to the kind of experiment: PABP1 MLLE–PAM2 binding inhibitor potency, dose response, biochemical, fluorescence polarization, FITC-PAM2 peptide (AID 602259). It is filed as functional. As to conditions: read-out: IC50_Mean.
Test [12] addresses T5, RNA-binding protein pos-1 (Caenorhabditis elegans, UniProt G5EF15).
T5 sequence (G5EF15 whole entry): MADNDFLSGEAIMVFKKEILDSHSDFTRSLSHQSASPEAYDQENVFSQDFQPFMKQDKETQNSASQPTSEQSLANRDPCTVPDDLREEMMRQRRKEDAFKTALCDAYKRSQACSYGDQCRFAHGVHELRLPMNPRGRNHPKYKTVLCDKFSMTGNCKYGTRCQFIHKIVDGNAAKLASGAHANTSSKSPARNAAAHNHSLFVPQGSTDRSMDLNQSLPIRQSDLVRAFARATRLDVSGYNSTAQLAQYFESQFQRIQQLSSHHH
As to the kind of experiment: inhibitors of POS-1/mex-3 RNA binding, dose response, biochemical, fluorescence polarization (AID 1964).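 Further: purified POS-1 fused to maltose binding protein made in E. coli; potency of compounds blocking POS-1 binding to fluorescent RNA.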

The next test deals with T6, Estrogen receptor (Homo sapiens, UniProt P03372).
T6 sequence (P03372 whole entry): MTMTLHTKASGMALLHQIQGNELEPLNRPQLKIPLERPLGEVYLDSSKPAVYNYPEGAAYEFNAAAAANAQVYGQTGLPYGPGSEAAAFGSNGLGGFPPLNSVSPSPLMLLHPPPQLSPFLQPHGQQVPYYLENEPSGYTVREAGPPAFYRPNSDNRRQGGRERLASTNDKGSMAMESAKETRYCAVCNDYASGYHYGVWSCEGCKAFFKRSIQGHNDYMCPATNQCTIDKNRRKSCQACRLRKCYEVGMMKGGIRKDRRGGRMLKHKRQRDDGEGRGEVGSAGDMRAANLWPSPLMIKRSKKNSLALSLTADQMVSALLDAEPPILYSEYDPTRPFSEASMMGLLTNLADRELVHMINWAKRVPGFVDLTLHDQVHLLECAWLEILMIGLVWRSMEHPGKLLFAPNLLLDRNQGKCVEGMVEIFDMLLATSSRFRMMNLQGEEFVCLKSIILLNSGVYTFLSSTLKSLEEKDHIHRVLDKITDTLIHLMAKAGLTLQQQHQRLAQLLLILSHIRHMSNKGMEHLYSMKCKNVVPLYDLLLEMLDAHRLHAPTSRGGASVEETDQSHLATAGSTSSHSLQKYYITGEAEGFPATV

A further test deals with Cytochrome P450 3A4 (Homo sapiens, UniProt P08684). Conditions: Potency.
Chain of Cytochrome P450 3A4 (P08684 whole entry): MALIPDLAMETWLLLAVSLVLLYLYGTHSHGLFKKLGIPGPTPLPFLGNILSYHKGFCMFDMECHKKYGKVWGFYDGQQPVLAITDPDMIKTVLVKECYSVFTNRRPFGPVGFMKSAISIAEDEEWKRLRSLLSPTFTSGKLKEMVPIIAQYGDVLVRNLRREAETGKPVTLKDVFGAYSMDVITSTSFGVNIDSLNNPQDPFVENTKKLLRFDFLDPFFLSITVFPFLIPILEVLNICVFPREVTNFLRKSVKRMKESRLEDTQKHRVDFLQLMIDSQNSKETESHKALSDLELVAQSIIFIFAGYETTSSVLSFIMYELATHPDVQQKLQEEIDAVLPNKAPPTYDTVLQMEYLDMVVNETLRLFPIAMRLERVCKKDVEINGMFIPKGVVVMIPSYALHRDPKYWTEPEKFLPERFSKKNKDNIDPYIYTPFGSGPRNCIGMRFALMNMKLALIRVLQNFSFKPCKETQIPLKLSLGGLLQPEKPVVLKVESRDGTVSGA
A short description of test [13]: cytotoxicity in HEK-293T cells, dose response, cytotoxicity control for BCR NF-kB inhibitor project, luminescence, B-cell screen hits (AID 489021).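 Further: HEK-293T cells carrying an NF-kB luciferase reporter; cells exposed to compound for about 14 hours before viability readout.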 It is filed as functional, cell-based.
Test [14] has as its target Luciferin 4-monooxygenase (Photinus pyralis, UniProt P08659). Kind of test: Counter Screen for Luciferase-based Assay Positives. [Related pubchem assays: 620, 618, 411 ].
A further test relates to HT-1080. Kind of test: cytotoxicity in HT1080 fibrosarcoma cells, cell-based, fluorescence readout (AID 620). It is filed as functional. Conditions: Homo sapiens.

Chain of Luciferin 4-monooxygenase (P08659 whole entry): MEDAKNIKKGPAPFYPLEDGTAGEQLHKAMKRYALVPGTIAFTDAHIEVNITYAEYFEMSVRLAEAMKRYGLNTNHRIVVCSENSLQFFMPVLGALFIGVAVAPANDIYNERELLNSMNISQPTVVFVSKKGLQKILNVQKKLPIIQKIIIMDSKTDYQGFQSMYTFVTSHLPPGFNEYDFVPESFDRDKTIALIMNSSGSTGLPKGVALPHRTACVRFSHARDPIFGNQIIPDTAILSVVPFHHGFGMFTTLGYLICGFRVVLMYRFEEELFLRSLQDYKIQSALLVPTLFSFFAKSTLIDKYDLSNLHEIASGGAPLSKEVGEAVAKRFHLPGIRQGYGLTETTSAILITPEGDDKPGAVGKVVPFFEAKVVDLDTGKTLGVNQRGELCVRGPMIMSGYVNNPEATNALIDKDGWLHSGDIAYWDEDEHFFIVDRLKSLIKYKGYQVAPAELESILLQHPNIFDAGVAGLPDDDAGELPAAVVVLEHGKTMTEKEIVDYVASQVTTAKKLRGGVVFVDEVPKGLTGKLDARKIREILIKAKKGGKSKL
T3 sequence (P11940 whole entry): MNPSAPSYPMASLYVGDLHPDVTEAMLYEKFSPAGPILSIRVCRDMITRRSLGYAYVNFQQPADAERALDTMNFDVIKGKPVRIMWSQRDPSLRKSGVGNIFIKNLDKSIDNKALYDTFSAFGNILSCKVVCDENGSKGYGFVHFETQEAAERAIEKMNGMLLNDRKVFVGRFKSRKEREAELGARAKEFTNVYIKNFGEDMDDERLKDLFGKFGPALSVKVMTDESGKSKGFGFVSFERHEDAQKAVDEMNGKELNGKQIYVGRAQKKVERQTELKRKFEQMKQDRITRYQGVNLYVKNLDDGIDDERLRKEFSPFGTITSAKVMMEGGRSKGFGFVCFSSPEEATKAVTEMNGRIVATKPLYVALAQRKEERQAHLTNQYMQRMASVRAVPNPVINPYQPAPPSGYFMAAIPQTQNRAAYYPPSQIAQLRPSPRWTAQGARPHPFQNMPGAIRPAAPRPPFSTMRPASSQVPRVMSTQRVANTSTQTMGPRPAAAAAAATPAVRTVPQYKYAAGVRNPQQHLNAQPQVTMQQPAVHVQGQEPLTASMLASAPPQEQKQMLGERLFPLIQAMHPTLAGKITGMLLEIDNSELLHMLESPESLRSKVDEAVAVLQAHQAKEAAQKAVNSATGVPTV
Chain of Induced myeloid leukemia cell differentiation protein Mcl-1 (Q07820 whole entry): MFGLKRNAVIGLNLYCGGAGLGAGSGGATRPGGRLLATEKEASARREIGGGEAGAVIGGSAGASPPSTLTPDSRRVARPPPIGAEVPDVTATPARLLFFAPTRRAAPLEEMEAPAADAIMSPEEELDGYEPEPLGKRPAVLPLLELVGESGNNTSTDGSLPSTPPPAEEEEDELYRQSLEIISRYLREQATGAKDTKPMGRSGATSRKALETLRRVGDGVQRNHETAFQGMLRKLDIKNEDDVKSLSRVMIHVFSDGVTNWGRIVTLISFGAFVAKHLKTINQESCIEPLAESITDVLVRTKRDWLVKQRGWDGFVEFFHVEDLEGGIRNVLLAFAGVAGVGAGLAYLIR
Chain of DNA dC->dU-editing enzyme APOBEC-3G (Q9HC16 whole entry): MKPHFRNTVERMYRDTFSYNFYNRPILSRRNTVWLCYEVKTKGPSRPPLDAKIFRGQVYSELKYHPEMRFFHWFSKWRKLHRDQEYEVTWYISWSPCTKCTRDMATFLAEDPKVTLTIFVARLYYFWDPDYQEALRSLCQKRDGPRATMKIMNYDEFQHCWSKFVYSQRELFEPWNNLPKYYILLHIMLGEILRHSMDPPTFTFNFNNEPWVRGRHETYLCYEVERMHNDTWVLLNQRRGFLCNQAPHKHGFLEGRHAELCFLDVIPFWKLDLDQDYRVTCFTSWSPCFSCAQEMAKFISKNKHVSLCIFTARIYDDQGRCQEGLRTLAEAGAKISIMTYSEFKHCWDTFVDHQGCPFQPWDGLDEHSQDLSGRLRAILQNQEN
Chain of Estrogen receptor beta (Q92731 whole entry): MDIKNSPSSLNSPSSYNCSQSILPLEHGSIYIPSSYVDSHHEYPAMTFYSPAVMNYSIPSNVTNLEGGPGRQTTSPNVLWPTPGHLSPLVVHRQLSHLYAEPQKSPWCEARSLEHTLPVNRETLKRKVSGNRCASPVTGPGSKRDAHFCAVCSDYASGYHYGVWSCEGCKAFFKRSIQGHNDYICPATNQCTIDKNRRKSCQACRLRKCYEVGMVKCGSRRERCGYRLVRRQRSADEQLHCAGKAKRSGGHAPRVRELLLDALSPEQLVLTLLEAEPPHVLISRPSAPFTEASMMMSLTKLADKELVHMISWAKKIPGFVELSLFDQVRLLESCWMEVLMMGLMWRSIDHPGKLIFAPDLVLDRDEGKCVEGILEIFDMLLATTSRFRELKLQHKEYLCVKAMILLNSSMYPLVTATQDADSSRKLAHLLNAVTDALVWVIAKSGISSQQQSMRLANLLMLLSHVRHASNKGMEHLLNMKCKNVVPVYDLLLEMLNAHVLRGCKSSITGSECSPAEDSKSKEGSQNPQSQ

On to `O=C(CN(Cc1ccco1)C(=O)c1cccc(Cl)c1)Nc1c(Cl)cc(Cl)cc1Cl`, for which the concentration at half-maximal activity (AC50) on Cytochrome P450 1A2 is 12.6 µM (inconclusive). In addition, in test [1], the 50% cytotoxic concentration (CC50) was 24 µM (active).

On to `CC1(C)CN=C(Nc2nc3ccccc3s2)S1`, for which the concentration for a half-maximal effect (EC50) on Streptokinase A is > 150 µM (not active); in test [2], 15.3 µM (active); in the test on Streptococcus it was > 150 µM (not active). In addition, in test [1], the half-maximal cytotoxic concentration (CC50) was > 40 µM (active).

Regarding `CCCC(C)c1nnc(NC(=O)CCS(=O)(=O)c2ccccc2)s1` (stereo not given), the IC50 in test [3] is 32.2 µM (active).

On to `Cc1nn(Cc2ccc(Cl)cc2)c(C)c1NC(=O)CSc1nc2c(c(C(F)(F)F)n1)CCc1ccccc1-2`, for which the concentration for a half-maximal effect (EC50) is > 60 µM (not active) in test [4], 12.8 µM (active) in [5], 1.72 µM (active) in [6] and 14 µM (active) in test [7]. The CC50 in test [1] was 29 µM (active).

In the case of `O=C(NCCO)c1ccc2nc(-c3ccco3)c(-c3ccco3)nc2c1`, the IC50 is > 66 µM (inactive) in test [8]; < 0.4 µM (active) in [9]; 67.7 µM (active) at Genome polyprotein; 11.4 µM (not active) on Estrogen receptor beta; > 66 µM (inactive) in test [11]; > 50 µM (not active) against Estrogen receptor. Also, the EC50 in test [10] is 17.5 µM (active); in test [12] it was > 300 µM (not active).

As for `COc1cccc(C2C(C)CCC3C(=O)N(C)C(C(C)C)C(=O)N32)c1` (stereo not given), the AC50 at Cytochrome P450 3A4 is 2 µM (inconclusive).

With `CCCc1nc2c(C)cc(-c3nc4ccccc4n3C)cc2n1Cc1ccc(-c2ccccc2C(=O)O)cc1`, the IC50 in test [13] was > 80 µM (inactive).

Take `CC(C)CCNC(=O)CCCOc1cc(=O)n(C)c2ccccc12`: the IC50 in test [13] is > 80 µM (inactive).

Take `COC(=O)C1OC(=O)C2O[C@@]23[C@]2(C)C(OC(C)=O)CC4C(C)(C)C(=O)CC[C@]4(C)C2CC[C@@]13C` (stereo not given in full): the AC50 at Cytochrome P450 3A4 is 39.8 µM (inconclusive).

For `CC(=O)OCC1=C(C(=O)O)N2C(=O)C(NC(=O)Cc3cccs3)C2SC1` (stereo not given), the AC50 on Cytochrome P450 3A4 is 31.6 µM (inconclusive).

Regarding `CC(C)CC(C)Nc1ccc(Nc2ccccc2)cc1` (stereo not given), the concentration at half-maximal activity (AC50) at Cytochrome P450 3A4 was 25.1 µM (inconclusive).

Take `Brc1ccccc1-c1nc(-c2ccccc2)no1`: the EC50 in test [14] is 5.42 µM (active); in the test with HT-1080 it was > 50 µM (not active).

Regarding `O=C(O)COc1ccc(-c2nccc(-c3ccccn3)n2)cc1`, the IC50 in test [13] was > 80 µM (inactive).

Consider `CC(C)(C)c1ccc(OCC(O)CSc2nnc[nH]2)cc1` (stereo not given), for which, in test [14], the EC50 was 1.29 µM (active).

`O=C(NCc1ccco1)c1cc2ccccc2c(=O)o1`: the IC50 against Estrogen receptor is given as 30.2 µM (not active).

On to `CC(C)(C)C(=O)N1CCc2cc(-c3csc(N)n3)ccc21`, for which the half-maximal effective concentration (EC50) in [14] was 9.92 µM (active); with HT-1080, > 50 µM (not active).

In the case of `Cc1cccc(C(=O)N2CCN(C(=O)c3cccc(C)c3)C(C)C2)c1` (stereo not given), the half-maximal effective concentration (EC50) in test [14] was 10.6 µM (active); with HT-1080, > 50 µM (not active).
